Test results taken from publication PMC3742671, “Structure, Antimicrobial Activities and Mode of Interaction with Membranes of Bovel Phylloseptins from the Painted-Belly Leaf Frog, Phyllomedusa sauvagii” (PLoS ONE, 2013).
Where two headings read alike, the source gives them in different places. Ends that are not written are not given here.

Key:
[1] = test system: C. parapsilosis ATCC 22019; type: cell-based
Experimental: (§1) The effect of phylloseptins-S was evaluated against several bacterial strains and yeasts (Table 2). Bacteria were cultured in Luria-Bertani broth (LB), whereas yeasts were cultured in Yeast Peptone Dextrose medium (YPD), and minimal inhibitory concentrations (MICs) were determined by measuring the absorbance at 630 nm in 96-well microtitration plates, as described previously. Leishmanicidal activity of phylloseptins-S was also examined against promastigotes of different Leishmania species: Leishmania infantum (strain MHOM/MA/67/ITMAP-263), L. major (MHOM/SU/73/5-ASKH) and L. braziliensis (MHOM/BR/75/M2904). Culture of promastigotes and determination of the growth inhibition were performed as previously described, [22], [23].

[2] = test system: L. braziliensis (MHOM/BR/75/M2904) promastigotes; type: cell-based
Experimental: as §1

[3] = test system: L. major (MHOM/SU/73/5-ASKH) promastigotes; type: cell-based
Experimental: as §1

[4] = test system: S. cerevisiae; type: cell-based
Experimental: as §1

[5] = test system: human leukemia monocyte cell line THP-1; experiment: Cytotoxic activity, MTT; type: cell-based; conditions: for IC50: 72 h, 37°C, RPMI + 10% FCS, peptide 3 to 50 µM, MTT read at 570 nm, average of three independent experiments in triplicates; for LC50: value stated jointly for the three peptides
Experimental: Hemolytic assays were performed using fresh human erythrocytes from a healthy donor according to a previously described protocol. Cytotoxic activity of PLS-S was also determined on the human leukemia monocyte cell line THP-1. 80 µL of 6.25×10^5 cells/mL were incubated for 72 h with 20 µL of peptide (3 to 50 µM, final concentrations) at 37°C and 5% CO2 in RPMI medium supplemented with 10% FCS. The cell viability was determined by adding 10 µL of methylthiazolyldiphenyl-tetrazolium bromide (MTT, 10 mg/mL) to the plate. After 4h incubation at 37°C, formazan was solubilized with 100 µL of a solution containing 50% isopropanol and 10% SDS, and the absorbance was measured at 570 nm. The lytic concentration 50 (LC50), which correspond to the peptide concentration producing 50% lysis, was determined with the GraphPad Prism® 5.0 software. Results were expressed as the mean of three independent experiments performed in triplicates.

[6] = test system: S. aureus ST1065; experiment: Time-kill assay; type: cell-based; conditions: for time to complete killing: peptide at two-fold above the MIC (MIC 6.25 µM), ∼2–3 10^6 cfu/mL in PBS, two experiments in triplicates
Experimental: The time-kill kinetics of phylloseptins-S against the Gram-negative bacteria E. coli ML-35p and the Gram-positive strain S. aureus ST1065 were evaluated as previously described with a dose of peptide corresponding to the MIC and two-fold above the MIC. Two experiments were realized in triplicates.
Figure 4 Time-kill curves of PLS-S1 (S1), -S2 (S2), and -S4 (S4). […] Controls correspond to bacteria incubated in PBS without peptide. The data are the means ± S.E.M. of two experiments carried out in triplicates.

[7] = test system: S. aureus ST1065; experiment: Permeabilization of the cytoplasmic membrane (ONPG hydrolysis); type: cell-based; conditions: ONP production at 405 nm from ONPG; compared with 10 µM dermaseptin B2 as positive control
Experimental: PLS-induced permeabilization of the cytoplasmic plasma membranes of E. coli ML-35p and S. aureus ST1065 was measured by the rate of production of o-nitrophenol (ONP) at 405 nm, following hydrolysis of o-nitrophenyl β-D-galactopyranoside (ONPG) by β-galactosidase. Dermaseptin B2 (10 µM) and PBS were used as positive and negative controls, respectively.
PLS-induced permeabilization of the cytoplasmic membranes of S. aureus ST1065 and E. coli ML-35p was analyzed by incubating the bacteria, which express β-galactosidase constitutively, with different concentrations of the peptides (S. aureus ST1065: PLS-S1, -S2, and -S4; E. coli ML-35p: PLS-S2 and -S4) and measuring the time-dependent hydrolysis of the small chromogenic substrate o-nitrophenyl-β-D-galactopyranoside (ONPG) into o-nitrophenol (ONP) by cytoplasmic β-galactosidase (Fig. 5). The three peptides permeabilized the bacterial cytoplasmic membrane with increasing severity according to the time and the peptide concentration. […] To investigate the mechanism of permeabilization, E. coli ML-35p were incubated with PLS-S2 (30 and 100 µM) and PLS-S4 (25 and 100 µM) for 60 min and β-galactosidase activity was measured after removing bacteria by centrifugation and adding ONPG to the supernatant.
Figure 5 Kinetics of the cytoplasmic membrane leakage of E. coli ML-35p and S. aureus ST1065 after incubation with different concentrations of active phylloseptins-S. The membrane leakage was determined by measuring the production of o-nitrophenol at 405 nm following hydrolysis of ONPG by the cytoplasmic bacterial β-galactosidase. Data are expressed as the mean ± S.E.M of two experiments carried out in triplicates after subtraction of the negative control values (w/o peptide) from the test values. Control panels display the kinetics obtained without peptide (negative control) and with 10 µM dermaseptin B2 (Drs B2, positive control). For E. coli ML-35p, the extracellular release of β-galactosidase was also measured as the production of o-nitrophenol at 405 nm after incubation (60 min) of E. coli cells with PLS-S2 (30 and 100 µM) and PLS-S4 (25 and 100 µM), removing of bacteria by centrifugation and adding ONPG to the supernatant. The negative (w/o peptide) and positive (10 µM Drs B2) controls are indicated for comparison. Results are expressed as the mean ± S.E.M of one representative experiment performed in triplicates.

[8] = Circular dichroism spectroscopy in SDS micelles; type: physicochemical; conditions: CD, peptide 30 µM in 80 mM SDS
Experimental: (§2) The far-ultraviolet circular dichroism (CD) spectra were recorded as described. Phylloseptins-S (30 µM) were solubilized either in 80 mM sodium dodecyl sulfate (SDS) or in phosphate-buffered saline (PBS: 10 mM phosphate, pH 7.3) containing 1 mg/mL of large unilamellar vesicles (LUVs) of 1,2-dimyristoyl-sn-glycero-3-phosphocholine (DMPC) and 1,2-dimyristoyl-sn-glycero-3-phosphoglycerol (DMPG) (3∶1 mol/mol). DMPC and DMPG were purchased from Avanti Polar Lipids, Inc. Each spectrum was the average of four scans. CD measurements are reported as Δ/n, where Δ is the dichroic increment and n is the number of residues in the peptide.
(§3) Figure 6 Circular dichroism spectra of synthetic phylloseptins-S (30 µM). (A) DMPC/DMPG (3∶1) large unilamellar vesicles in PBS (1 mg/mL). (B) 80 mM SDS. CD measurements are reported as the dichroic increment (Δε) per residue.

[9] = Circular dichroism spectroscopy with DMPC/DMPG (3:1) large unilamellar vesicles; type: physicochemical; conditions: CD, peptide 30 µM, DMPC/DMPG (3:1) LUVs 1 mg/mL in PBS pH 7.3
Experimental: as §2, §3

Substance	MIC [1] [µM]	IC50 [2] [µM]	IC50 [3] [µM]	MIC [4] [µM]	IC50 [5] [µM]	LC50 [5] [µM]	killing kinetics (in words) ([6]; compared with PLS-S1 and -S2, MIC and two-fold above the MIC, in PBS)	permeabilization of the cytoplasmic membrane (in words) [7]	helix content [8] [%]	helix content [9] [%]	time to complete killing [6] [min]	MIC ([4]; YPD medium, absorbance at 630 nm, average of three independent experiments in triplicates) [µM]
FLSMIPHIVSGVAALAKHL-NH2 [PLS-S4]	50	17.2	18	12.5	23	23	slower	as efficient as with dermaseptin-B2	59	68	–	–
FLSLIPHIVSGVASIAKHF-NH2 [PLS-S1]	100	15.3	12.6	12.5	23	23	–	as efficient as with dermaseptin-B2	96	70	≤ 5	–
FLSLIPHIVSGVASLAKHF-NH2 [PLS-S2]	50	15	13.3	–	22.5	23	–	as efficient as with dermaseptin-B2	65	80	≤ 5	6.25
